The numbers were not newly measured in patent publication US12630850B2, “Enzymatic break down of chlorogenic acid in sunflower-containing products” (Chapman University, priority 2022, dated 2026), which cites them from elsewhere.

The conditions of data set [1]: Kabir et al., 2014; cited from earlier work.
The conditions of data set [2]: Lai et al., 2009; cited from earlier work.
The conditions of data set [3]: p-nitrophenyl acetate, between 20° C. and 40° C.; cited from earlier work.

One may read the pKa as the pH at which an ionisable group is half protonated. As to `O=C(O)[C@]1(O)C[C@@H](O)[C@@H](O)[C@H](O)C1` [quinic acid], the pKa in data set [1] is on record as 3.4.

On to `O=C(O)/C=C/c1ccc(O)c(O)c1` [caffeic acid], for which the pKa in data set [1] is recorded as 4.5.

As for `O=C(/C=C/c1ccc(O)c(O)c1)O[C@@H]1C[C@](O)(C(=O)O)C[C@@H](O)[C@H]1O` [CGA, Chlorogenic acid], the pKa in data set [1] was 3.6.

B1: L. johnsonii: CGA esterase from L. johnsonii (Lai et al., 2009) (protein, listed as Lactobacillus johnsonii)
chain: MATTITLERDGLQLVGTREEPFGEIYDMAIIFHGFTANRNTSLLKEIANSLRDENIASVRFDFNGHGDSDGKFENMTVLNEIEDANAILNYVKTDPHVRNIYLVGHSQGGVVASMLAGLYPDLIKKVVLLAPAATLKSDALEGNTQGVTYNPDHIPDRLPFKDLTLGFYLRIAQQLPIYEVSAQFTKPVCLIHGTDDTWSPNASKKYDQIYQNSTLHLIEGADHCFSDSYQKNAVNLTTDFLQNNNAF
For orientation: Km means the concentration of substrate that gives half-maximal velocity. For the molecule B1, the Michaelis-Menten constant (Km) in data set [2] was 53 µM.

B2: L. gasseri: CGA esterase from the bacterium L. gasseri (Fritsch et al., 2017) (protein, listed as Lactobacillus gasseri)
chain: MKLKKKKVGIYMATITIERDGLNLVGTREEPFGEIYDMAIIFHGFTANRNTPLLKEIADELRDENIASVRFDFNGHGDSDGKFENMTVLNEIEDANAILNYVKTDPHVRNIYLVGHSQGGVVASMLAGLYPDIIKKVVLLAPAATLKTDALNGSTQGVKYNPDHIPDRLPFKDLTLGFYLRIAQQLPIYEVSVHFTRPVCLIHGANDTWSPDASKKYDQVYENSTLHLVEGADHSFTDTYQKTAADLTAEFLQDNNTF
Consider B2, for which the Temperature-dependence of activity entry in data set [3] is listed as “very weak temperature-dependence”.
